Test results taken from patent US9657009B2, “Heteroaryl substituted pyridyl compounds useful as kinase modulators” (BRISTOL-MYERS SQUIBB COMPANY, priority 2012, dated 2017).
Where two headings read alike, the source gives them in different places.

Molecular target: IRAK4 (Homo sapiens (Human), UniProt Q9NWZ3)
Test: IRAK4 Inhibition Assay
Type: biochemical
Description: IRAK4 Inhibition Assay The assays were performed in U-bottom 384-well plates. […] The reaction was initiated by the combination of IRAK4 with substrates and test compounds. The reaction mixture was incubated at room temperature for 60 min. and terminated by adding 45 μL of 35 mM EDTA to each sample.

[1] = ATP 500 μM; IRAK4 0.6 nM; 60 min at room temperature; read-out: IRAK4 IC50

Chain of IRAK4 (Q9NWZ3 whole entry, species assumed): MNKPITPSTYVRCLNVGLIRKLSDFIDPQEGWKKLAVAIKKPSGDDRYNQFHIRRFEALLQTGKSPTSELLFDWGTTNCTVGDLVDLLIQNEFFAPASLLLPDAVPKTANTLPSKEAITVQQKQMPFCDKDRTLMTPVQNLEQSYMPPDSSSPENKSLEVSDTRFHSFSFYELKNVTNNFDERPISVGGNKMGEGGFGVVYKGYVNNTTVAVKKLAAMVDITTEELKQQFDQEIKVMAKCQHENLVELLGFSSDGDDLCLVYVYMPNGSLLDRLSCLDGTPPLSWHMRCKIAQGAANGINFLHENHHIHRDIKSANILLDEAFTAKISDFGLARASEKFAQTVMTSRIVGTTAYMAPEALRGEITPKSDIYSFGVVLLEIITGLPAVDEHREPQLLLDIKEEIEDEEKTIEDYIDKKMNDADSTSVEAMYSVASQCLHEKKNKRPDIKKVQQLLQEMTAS

IC50 [1] [nM]	Compound	IC50 (read-out: IRAK4 IC50; ATP 500 μM; IRAK4 0.6 nM; 60 min at room temperature) [nM]
13	CC(C)Nc1cc(Nc2ncncc2N)ncc1C(=O)NC[C@@H](F)C(C)(C)O [Example 132]	–
3.2	CC(C)(O)[C@H](F)CNC(=O)c1cnc(Nc2ncc(C#N)cc2F)cc1NC12CCC(O)(CC1)C2 [Example 133]	–
5.2	CC(C)(O)[C@H](F)CNC(=O)c1cnc(Nc2ncc(C#N)cc2F)cc1Nc1cccc(NS(C)(=O)=O)c1 [Example 134]	–
6	CC(C)(O)[C@H](F)CNC(=O)c1cnc(Nc2ncc(C#N)cc2F)cc1Nc1cccc(C(N)=O)c1 [Example 135]	–
3.3	CC(C)Nc1cc(Nc2ncc(C#N)c(N)n2)ncc1C(=O)NC[C@@H](F)C(C)(C)O [Example 136]	–
4.1	CC(C)Nc1cc(Nc2ncc(C#N)cc2F)ncc1C(=O)N[C@H]1CC[C@H](C(C)(C)O)CC1 [Example 137]	–
3.5	CCCNc1cc(Nc2ncc(C#N)cc2Cl)ncc1C(=O)NC[C@@H](F)C(C)(C)O [Example 138]	–
6	CCCNc1cc(Nc2ncc(C#N)cc2F)ncc1C(=O)NC[C@@H](F)C(C)(C)O [Example 139]	–
7.3	CC(C)CCNc1cc(Nc2ncc(C#N)cc2Cl)ncc1C(=O)NC[C@@H](F)C(C)(C)O [Example 140]	–
9.9	CC(C)CCNc1cc(Nc2ncc(C#N)cc2F)ncc1C(=O)NC[C@@H](F)C(C)(C)O [Example 141]	–
1.2	CC(C)(O)[C@H](F)CNC(=O)c1cnc(Nc2ncc(C#N)cc2F)cc1Nc1ccc(C(N)=O)cc1 [Example 142]	–
2.9	CC(C)(O)[C@H](F)CNC(=O)c1cnc(Nc2ncc(C#N)cc2Cl)cc1Nc1cccc(C(N)=O)c1 [Example 143]	–
–	CC(C)Nc1cc(Nc2ncc(C#N)cc2F)ncc1C(=O)NC1CCC(C(C)(O)C2CC2)CC1 (centres unmarked) [Example 144]	7.8
8.5	Cn1nnnc1-c1cccc(Nc2cc(Nc3ncc(C#N)cc3Cl)ncc2C(=O)NC[C@@H](F)C(C)(C)O)c1 [Example 146]	–
12.4	Cn1nnnc1-c1ccc(Nc2cc(Nc3ncc(C#N)cn3)ncc2C(=O)NC[C@@H](F)C(C)(C)O)cc1 [Example 147]	–
3.4	Cn1nnnc1-c1ccc(Nc2cc(Nc3ncc(C#N)cc3Cl)ncc2C(=O)NC[C@@H](F)C(C)(C)O)cc1 [Example 148]	–
3	CS(=O)(=O)[C@H]1CC[C@H](NC(=O)c2cnc(Nc3ncc(C#N)cc3Cl)cc2NC2CCOCC2)CC1 [Example 149]	–
1.4	CC(C)(O)[C@H](F)CNC(=O)c1cnc(Nc2ncc(C#N)cc2Cl)cc1N[C@H]1CC[C@](C)(O)CC1 [Example 150]	–
3.3	CS(=O)(=O)[C@H]1CC[C@H](NC(=O)c2cnc(Nc3ncc(C#N)cc3Cl)cc2NC2CC2)CC1 [Example 151]	–
5.3	CC(C)(O)[C@H](F)CNC(=O)c1cnc(Nc2ncc(C#N)cc2Cl)cc1N[C@H]1CC[C@@](C)(O)CC1 [Example 152]	–
5.6	CC(C)(O)[C@H](F)CNC(=O)c1cnc(Nc2ncc(C#N)cc2Cl)cc1Nc1ccc2ncsc2c1 [Example 153]	–
4.3	CC(C)CNc1cc(Nc2ncc(C#N)cc2Cl)ncc1C(=O)NC[C@@H](F)C(C)(C)O [Example 155]	–
8.6	CC(C)Nc1cc(Nc2ncc(C#N)cc2Cl)ncc1C(=O)NC[C@H](F)C(C)(C)O [Example 156]	–
15.5	CS(=O)(=O)[C@H]1CC[C@H](NC(=O)c2cnc(Nc3ncc(C#N)cc3F)cc2Nc2cccc(C(N)=O)c2)CC1 [Example 161]	–
2.6	CC(C)(O)[C@H](F)CNC(=O)c1cnc(Nc2ncc(C#N)cc2Cl)cc1Nc1cccc(C#N)c1 [Example 162]	–
10.2	CC(Nc1cc(Nc2ncc(C#N)cn2)ncc1C(=O)NC[C@@H](F)C(C)(C)O)C1CC1 (some centres unmarked) [Example 163]	–
11.3	COC(=O)N[C@H]1CC[C@H](NC(=O)c2cnc(Nc3ncc(C#N)cc3F)cc2NC(C)C)CC1 [Example 165]	–

Compound	IC50 [1] [nM]	IC50 (read-out: IRAK4 IC50; ATP 500 μM; IRAK4 0.6 nM; 60 min at room temperature) [nM]
CC(C)(O)[C@H](F)CNC(=O)c1cnc(Nc2ncc(C#N)c(N)n2)cc1NC1CC1 [Example 154]	5.2	–
CC(C)(O)[C@H](F)CNC(=O)c1cnc(Nc2ncc(C#N)cc2F)cc1NC1COC1 [Example 164]	8	–
